Experimental data reported in EP4722219A1 (Gan & Lee Pharmaceuticals Co., Ltd., priority 2023, dated 2024).

Key:
Type in all cases: cell-based
MCF-7 cells = experiment: Inhibition of cell proliferation in MCF-7 cells (CCK-8); conditions: MCF-7 cell proliferation, 6 days treatment
Procedure, shortened: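 MCF-7 cells, 800 per well in DMEM plus 10% FBS, exposed to graded PROTAC concentrations for 6 days at 37 °C, 5% CO2. Viability by CCK-8; IC50 fitted from inhibition rates.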

T-47D cells = experiment: Inhibition of cell proliferation in T-47D cells (CCK-8); conditions: 6 days treatment, CCK-8 cell viability
Procedure, shortened: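 T-47D cells (3,000/well) in RPMI-1640 with 10% FBS were exposed to a concentration range of PROTAC compounds for 6 days at 37 °C, 5% CO2. Viability read by CCK-8; IC50 fitted from inhibition rate.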

ERα [1] = target: T1, ERα (Homo sapiens, UniProt P03372); experiment: ERα degradation in T-47D cells (Western blot); conditions: 4 hours
T1 sequence (P03372 1-595): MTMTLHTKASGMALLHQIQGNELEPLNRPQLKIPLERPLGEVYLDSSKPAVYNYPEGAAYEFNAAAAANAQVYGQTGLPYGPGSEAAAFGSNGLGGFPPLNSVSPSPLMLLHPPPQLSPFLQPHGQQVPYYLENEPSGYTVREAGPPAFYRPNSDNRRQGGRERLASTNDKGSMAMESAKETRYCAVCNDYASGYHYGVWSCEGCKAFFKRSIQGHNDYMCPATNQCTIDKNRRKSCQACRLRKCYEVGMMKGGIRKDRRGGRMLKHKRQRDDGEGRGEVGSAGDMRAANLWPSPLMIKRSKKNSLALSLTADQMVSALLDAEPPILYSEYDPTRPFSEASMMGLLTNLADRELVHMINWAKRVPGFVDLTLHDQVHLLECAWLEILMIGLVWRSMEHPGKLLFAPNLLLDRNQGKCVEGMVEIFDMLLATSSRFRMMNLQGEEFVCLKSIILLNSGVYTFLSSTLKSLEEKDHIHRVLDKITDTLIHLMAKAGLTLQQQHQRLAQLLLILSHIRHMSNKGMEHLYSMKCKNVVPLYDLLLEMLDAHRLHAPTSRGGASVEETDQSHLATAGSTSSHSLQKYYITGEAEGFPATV
Procedure, shortened: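 T-47D cells at 3×10^5 cells/well were exposed to compound (final 0.15-1000 nM, DMSO) for 4 hours at 37°C and then lysed in RIPA. ERα was measured by Western blot (20 µg protein) with infrared imaging. The degradation rate was calculated from ERα/internal-reference grayscale ratios relative to control.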

ERα [2] = target: T1, ERα; experiment: ERα degradation in MCF-7 cells (Western blot); parameters: host or cells: MCF-7; conditions: 4 hours
Procedure, shortened: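 MCF-7 cells treated 4 h at 37 °C with compound at 0.15–1000 nM final. ERα in lysates measured by Western blot (20 µg protein), normalized to an internal reference protein; degradation rate calculated against control.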

IC50 (MCF-7 cells) [nM] | IC50 (T-47D cells) [nM] | SMILES | IC50 (MCF-7 cells; Homo sapiens, MCF7, 144 h) [nM] | IC50 (T-47D cells; Homo sapiens, T47D, 144 h) [nM] | Degradation rate of ERα in T-47D cells (%) (ERα [1]; 1nM) | Degradation rate of ERα in T-47D cells (%) (ERα [1]; 10nM) | Degradation rate of ERα in MCF-7 cells (%) (ERα [2]; 1nM) | Degradation rate of ERα in MCF-7 cells (%) (ERα [2]; 10nM)
– | – | O=C1CCC(N2Cc3c(ccc4c3OCC43CCC4(CCN(C5CCC6(CC5)CN(c5ccc([C@@H]7c8ccc(O)cc8CC[C@@H]7c7ccccc7)cc5)C6)CC4)CC3)C2=O)C(=O)N1 (stereo partly drawn) [ER-P-2] | 62.6 | 2.02 | 26 | 54 | 7 | 48
– | – | O=C1CCC(N2Cc3c(ccc4c3OCC43CCC4(CC3)CN(C3CCC5(CC3)CN(c3ccc([C@@H]6c7ccc(O)cc7CC[C@@H]6c6ccccc6)cc3)C5)C4)C2=O)C(=O)N1 (stereo partly drawn) [ER-P-10, 3-(1-(2-(4-((1R,2S)-6-hydroxy-2-phenyl-1,2,3,4-tetrahydronaphthalen-1-yl)phenyl)-2-azaspiro[3.5]nonan-7-yl)-6'-oxo-6',8'-dihydro-2'H,7'H-dipyrazole[azetidine-3,1'-cyclohexane-4',3"-furo[2,3-e]isoindol]-7'-yl)piperidine-2,6-dione] | 8.53 | 1.63 | 51 | 77 | 24 | 57
– | – | Cn1c(=O)n(C2CCC(=O)NC2=O)c2cc3c(cc21)C1(CCN(C2CC4(CCN(c5ccc([C@@H]6c7ccc(O)cc7CC[C@@H]6c6ccccc6)cc5)CC4)C2)CC1)CO3 (stereo partly drawn) [ER-P-12, 3-(1'-(7-(4-((1R,2S)-6-hydroxy-2-phenyl-1,2,3,4-tetrahydronaphthalen-1-yl)phenyl)-7-azaspiro[3.5]nonan-2-yl)-1-methyl-2-oxo-1,2-dihydro-3H,6H-spiro[benzofuro[5,6-d]imidazole-7,4'-piperidin]-3-yl)piperidine-2,6-dione] | 25.2 | 2.4 | 34 | 38 | -9 | -11
7390 | 115 | COc1c(C(=O)N[C@H]2CCC(=O)NC2=O)ccc2c1OC[C@H]1CN(CC3CCC(OC4CCN(c5ccc([C@@H]6c7ccc(O)cc7CC[C@@H]6c6ccccc6)cc5)CC4)CC3)CCN21 (stereo partly drawn) [ER-P-48, (R)-N-((S)-2,6-dioxopiperidin-3-yl)-3-(((1S,4S)-4-((1-(4-((1R,2S)-6-hydroxy-2-phenyl-1,2,3,4-tetrahydronaphthalen-1-yl)phenyl)piperidin-4-yl)oxy)cyclohexyl)methyl)-7-methoxy-1,2,3,4,4a,5-hexahydrobenzo[b]pyrazi no[1,2-d][1,4]oxazine-8-carboxamide] | – | – | 6 | 0 | 13 | -1
– | – | O=C1CCC(N2Cc3c(ccc4c3OCC43CCC4(CC3)CN(CC3CCN(c5ccc([C@@H]6c7ccc(O)cc7CC[C@@H]6c6ccccc6)cc5)CC3)C4)C2=O)C(=O)N1 (stereo partly drawn) [ER-P-23, 3-(1-((1-(4-((1R,2S)-6-hydroxy-2-phenyl-1,2,3,4-tetrahydronaphthalen-1-yl)phenyl)piperidin-4-yl)methyl)-6"-oxo-6",8"-dihydro-2"H,7"H-di(pyridyl)furan[azetidine-3,1'-cyclohexane-4',3"-furo[2,3-e]isoindol]-7"-yl)piperidine-2,6-dione] | < 0.256 | 1.61 | 40 | 67 | 26 | 48
1630 | 1.48 | O=C1CC[C@H](NC(=O)c2ccc3c(c2)OCC[C@H]2CN(CC4CCC(OC5CCN(c6ccc([C@@H]7c8ccc(O)cc8CC[C@@H]7c7ccccc7)cc6)CC5)CC4)CCN32)C(=O)N1 (stereo partly drawn) [ER-P-45, (S)-N-((S)-2,6-dioxopiperidin-3-yl)-3-((4-((1-(4-((1R,2S)-6-hydroxy-2-phenyl-1,2,3,4-tetrahydronaphthalen-1-yl)phenyl)piperidin-4-yl)oxy)cyclohexyl)methyl)-2,3,4,4a,5,6-hexahydro-1H-benzo[b]pyrazino[1,2-d][1,4]oxazepine-9-carboxamide] | – | – | -5 | -3 | -15 | -24
– | – | O=C1CC[C@H](N2Cc3cc(N4CCN(CC5CCN(c6ccc([C@@H]7c8ccc(O)cc8CC[C@@H]7c7ccccc7)cc6)CC5)CC4)ccc3C2=O)C(=O)N1 [ARV-471, reference compound] | 0.0017 | 0.0017 | 61 | 85 | 38 | 76
– | – | Cn1c(=O)n(C2CCC(=O)NC2=O)c2ccc3c(c21)OCC31CCN(C2CCN(C(=O)C3CCN(c4ccc([C@@H]5c6ccc(O)cc6CC[C@@H]5c5ccccc5)cc4)CC3)CC2)CC1 (stereo partly drawn) [ER-P-13, 3-(1'-(1-(1-(4-((1R,2S)-6-hydroxy-2-phenyl-1,2,3,4-tetrahydronaphthalen-1-yl)phenyl)piperidine-4-carbonyl)piperidin-4-yl)-1-methyl-2-oxo-1,2-dihydro-3H,7H-spiro[benzofuro[6,7-d]imidazole-6,4'-piperidin]-3-yl)piperidine-2,6-dione] | 18.9 | 0.47 | 79 | 74 | 72 | 85
– | – | C[C@@H]1Cc2cc(O)ccc2C(c2c(F)cc(N3CCC4(CCC(N5CC6(CCC7(CC6)COc6c7ccc7c6CN(C6CCC(=O)NC6=O)C7=O)C5)CC4)CC3)cc2F)N1CC(F)F (stereo partly drawn) [ER-P-21, 3-(1-(3-(4-((3R)-2-(2,2-difluoroethyl)-6-hydroxy-3-methyl-1,2,3,4-tetrahydroisoquinolin-1-yl)-3,5-difluorophenyl)-3-azaspiro[5.5]undecan-9-yl)-6"-oxo-6",8"-dihydro-2"H,7"H-dispiro[azetidine-3,1'-cyclohexane-4',3"-furo[2,3-e]isoindol]-7"-yl)piperidine-2,6-dione] | 15.1 | 1.3 | 42 | 65 | 50 | 69
– | – | Cn1c(=O)n(C2CCC(=O)NC2=O)c2cc3c(cc21)C1(CCN(C2CCC4(CC2)CCN(c2ccc([C@@H]5c6ccc(O)cc6CC[C@@H]5c5ccccc5)cc2)CC4)CC1)CO3 (stereo partly drawn) [ER-P-60] | 0.362 | 1.41 | 21 | 51 | 14 | 36
– | – | CN(C(=O)CN1CCC2(CC1)COc1c2ccc(F)c1C(=O)N[C@H]1CCC(=O)NC1=O)C1CCC2(CC1)CN(c1ccc([C@@H]3c4ccc(O)cc4CC[C@@H]3c3ccccc3)cc1)C2 [ER-P-40, N-((S)-2,6-dioxopiperidin-3-yl)-6-fluoro-1'-(2-((2-(4-((1R,2S)-6-hydroxy-2-phenyl-1,2,3,4-tetrahydronaphthalen-1-yl)phenyl)-2-azaspiro[3.5]nonan-7-yl)(methyl)amino)-2-oxoethyl)-2H-spiro[benzofuran-3,4'-piperidine]-7-carboxamide] | 6210 | 28.4 | 22 | 34 | -10 | -53

SMILES | IC50 (MCF-7 cells) [nM] | IC50 (T-47D cells) [nM] | IC50 (MCF-7 cells; Homo sapiens, MCF7, 144 h) [nM] | IC50 (T-47D cells; Homo sapiens, T47D, 144 h) [nM] | Degradation rate of ERα in T-47D cells (%) (ERα [1]; 1nM) | Degradation rate of ERα in T-47D cells (%) (ERα [1]; 10nM) | Degradation rate of ERα in MCF-7 cells (%) (ERα [2]; 1nM) | Degradation rate of ERα in MCF-7 cells (%) (ERα [2]; 10nM)
O=C1CCC(Nc2ccc3c(c2)COC[C@H]2CN(CC4CCC(OC5CCN(c6ccc([C@@H]7c8ccc(O)cc8CC[C@@H]7c7ccccc7)cc6)CC5)CC4)CCN32)C(=O)N1 (single isomer, unassigned) [ER-P-50] | 3270 | – | – | 45.6 | 4 | 18 | 1 | 9
